Reference: patent publication US12246021B2, “Compounds for uses in pharmacological induction of HBF for treatment of sickle cell disease and ß-thalassemia” (Academia Sinica, priority 2019, dated 2025)
Each block holds one compound with its values, some of them ahead of it.

Assays:
[1] = system: GATA1; assay: RT-qPCR of γ-globin transcription regulators in human primary erythroid cells: GATA1; assay type: cell-based; details: AS-28 0.5 μM
Description: (§1) The total RNAs were isolated from human primary erythroid cells in culture without (Mock) and with (AS-28) treatment by AS-28, and analyzed by RT-qPCR. N=4 biological experiments, *, p<0.05; ***, p<0.001.
(§2) After 3 days of compound treatment, total RNA was extracted by a Quick-RNA miniprep kit (Zymo) and reverse-transcription was performed using Maxima H Minus Reverse Transcriptase (ThermoFisher Scientific) according to the manufacturer's instructions. Quantitative PCR was performed on a LightCycler system with SYBR green master mix following the manufacturer's instructions (Roche). The relative quantitative RT-PCR data was normalized to the Cq number of […] and compared to a mock control.
(§3) In order to examine whether AS-28 would cause cellular toxicity, the gene expression profiles of human primary erythroid cells in culture were compared by RNA-sequence analysis. Several candidate genes, encoding known γ globin gene regulators were selected from the gene list of RNA-sequence data (fold change >1.4) for validation by RT-qPCR (FIG. 7). […] In addition, AS-28 inhibited the expression of γ globin repressor c-MYB (0.5-fold).

[2] = system: SCD mice; assay: Oral AS-28 in SCD mice: blood count, HbF HPLC, F-cells, blood smear; assay type: in vivo; details: 50, 75 or 100 mg/kg oral gavage twice per day, 5 days per week, 4 weeks
Description: Sickle cell disease mice (B6; 129-Hba^tm1(HBA)Tow, Hbb^tm2(HBG1,HBB*)Tow/J) were purchased from Jackson Laboratory and were bred at the AS Core, Academia Sinica. Mice of 6-8 weeks old were used for experiments. Treatment groups received vehicle [20% (2-Hydroxypropyl)-β-cyclodextrin] plus AS-28 (50 mg/kg, 75 mg/kg or 100 mg/kg), which was administered by oral gavage twice per day, 5 days per week, for 4 weeks.
Blood was collected by submandibular blood collection and analysis was performed using a ProCyte Dx automatic analyzer.
10 μl of whole blood was washed twice with PBS and then fixed with 0.05% glutaraldehyde for 10 minutes. After fixation, the cells were washed twice with PBS and then permeabilized by adding cold 0.1% Triton X-100 for 5 minutes. Cells were washed twice with 0.1% BSA/PBS and stained with PE-HbF antibody (BD) for 40 minutes at room temperature (with protection from light). Finally, the cells were washed three times with 0.1% BSA/PBS and passed through a […] cell strainer (Falcon). F-cell % was analyzed by flow cytometry (LSRII-18P, BD).
50 μl of whole blood was lysed in 200 μl ddH2O and centrifuged for 5 minutes at 13,000 rpm to extract the hemolysate. HPLC was performed according to a previously described protocol^22.
For hypoxia treatment, whole blood was incubated in a hypoxic incubator chamber (3% 02) for 30 minutes. […] of whole blood (with or without hypoxia) was used to make blood smears on slides. Slides were air-dried and then stained with Liu-stain before quantifying the percentage of sickle-shaped cells.
To further evaluate the therapeutic potential of AS-28 for treating hemoglobinopathies, SCD mice (an SCD disease animal model generated by the laboratory of Prof. Tim Townes, University of Alabama) were used to examine whether AS-28 treatment could relieve anemia in SCD mice. Different dosages of AS-28 were administered to 6-8 week-old SCD mice over four weeks. After four weeks of oral gavage, blood samples from the treated SCD mice were collected for several biochemical analyses (FIG. 5). […] Reticulocyte (RET), white blood cell (WBC) and neutrophil (NEUT) values were equivalent between AS-28-treated and mock-treated SCD mice. […] A diagnostic indicator of SCD is the characteristic sickle-shaped morphology of red blood cells under hypoxia.

[3] = system: HU-resistant primary human erythroid cells; assay: Cell viability in hydroxyurea-resistant primary human erythroid cells; assay type: cell-based; details: 0.5 μM
Description: (§4) Peripheral blood samples were purchased from the Taipei Blood Center. The concentrated blood was diluted 1:5 (V/V) in phosphate-buffered saline (PBS) and distributed in a thin layer on Ficoll-paque PLUS ([…]) (GE Healthcare) in a SepMate column (STEMCELL). After centrifugation at 1200 g for 10 minutes, the cells in the inter-phase region were collected. The collected cells were washed with PBS and centrifuged at low speed three times. The remaining mononuclear cells were expanded in Phase I medium containing 1×SFEM (STEMCELL), 100 ng/ml SCF, 20 ng/ml IL-3, 20 ng/ml IL-6, and 100 ng/ml Flt3-L at 37° C. in an incubator with 5% CO2 for 7 days. The expanded mononuclear cells were further differentiated in Phase II medium containing 1×SFEM (StemSpan), 20 ng/ml SCF, 5 ng/ml IL-3, 1 U/ml EPO for another 7 days. The differentiated erythroid cells were treated with indicated compounds of different dosages with a seeding density of 5×10^5 cells/ml for another 3 days.
Cell viability was assessed using AlamarBlue reagent (Invitrogen). After 3 days of treatment, 100 μl of treated cell culture was transferred into a 96-well plate and 1/10 volume of AlamarBlue reagent was added and the cell culture was incubated overnight at 37° C. Cell viability was evaluated using a multi-label counter (Ex 530-560 nm, Em 590 nm) (PerkinElmer). […]

[4] = system: NFE2L2; assay: RT-qPCR of γ-globin transcription regulators in human primary erythroid cells: NFE2L2; assay type: cell-based; details: AS-28 0.5 μM
Description: as §1, §2, §3

[5] = system: c-MYB; assay: RT-qPCR of γ-globin transcription regulators in human primary erythroid cells: c-MYB; assay type: cell-based; details: AS-28 0.5 μM
Description: as §1, §2, §3

[6] = Solubility of the compounds; assay type: physicochemical
[7] = system: γ-globin gene; assay: γ-globin mRNA induction by quantitative RT-PCR in primary human erythroid cell culture; assay type: cell-based; details: 3 days, primary human erythroid cells
Description: as §4, with “The expanded mononuclear cells were further differentiated in Phase II medium containing 1×SFEM (StemSpan), 20 ng/ml SCF, 5 ng/ml IL-3, 1 U/ml EPO for another 7 days. The differentiated erythroid cells were treated with indicated compounds of different dosages with a seeding density of 5×10^5 cells/ml for another 3 days.” left out
as §2
Compound AS-28 was designed based on the pharmacophore of the HbF-inducing compound TN1 (FIGS. 1A-1B). The efficacy of γ-globin gene induction by AS-28 treatment using a primary human erythroid cell culture system was evaluated. […]

[8] = in vivo; details: rat
Description: The abbreviations as defined as follows: IV—intravenous; PO—per-os (oral); T1/2—half-life; CL—clearance; Vss—steady-state distribution volume; AUC(0-inf)—area under the curve; F—bioavailability; ND—not detected.

[9] = system: human primary erythroid cells; assay: RNA-sequence gene expression profile with Ingenuity Pathways Analysis; assay type: cell-based; details: human primary erythroid cells treated with AS-28
Description: The RNA-sequence data was analyzed by Ingenuity Pathways Analysis (IPA). The top cellular pathways in the primary erythroid cells affected by AS-28 are listed here. DEGs: Fold change ≥1.4, p<0.05.
as §3
To reveal the global effect of AS-28 on human primary erythroid cells, the differentially expressed genes (DEGs) from the RNA-sequence data (fold change ≥1.4 and p<0.05) were selected for analysis by Ingenuity Pathways Analysis (IPA).

[10] = system: γ-globin gene; assay: γ-globin mRNA induction in hydroxyurea-resistant primary human erythroid cells; assay type: cell-based; details: 0.5 μM, HU-resistant primary human erythroid cells
Description: as §4, with “The differentiated erythroid cells were treated with indicated compounds of different dosages with a seeding density of 5×10^5 cells/ml for another 3 days.” left out
as §2, with “control. […]” for “control.”

[11] = system: primary human erythroid cells; assay: Cell viability assay (AlamarBlue) in primary human erythroid cell culture; assay type: cell-based; details: 3 days
Description: as §4, with “The differentiated erythroid cells were treated with indicated compounds of different dosages with a seeding density of 5×10^5 cells/ml for another 3 days.” left out
Cell viability was assessed using AlamarBlue reagent (Invitrogen). […] Cell viability was evaluated using a multi-label counter (Ex 530-560 nm, Em 590 nm) (PerkinElmer).
Compound AS-28 was designed based on the pharmacophore of the HbF-inducing compound TN1 (FIGS. 1A-1B). The efficacy of γ-globin gene induction by AS-28 treatment using a primary human erythroid cell culture system was evaluated. After two weeks of in vitro erythroid cell differentiation, cells were treated with AS-28 for three days and then harvested for quantitative RT-PCR analysis and cell viability assay.

[12] = system: BCL11A protein; assay: Western blot of BCL11A protein in primary human erythroid cells; assay type: cell-based; details: for expression level of BCL11A protein (in words): 3 days, AS-28 at 0.5 μM and 1 μM
Description: as §4
After 3 days of treatment, total protein was extracted by modified RIPA (50 mM Tris-HCl pH7.8, 150 mM NaCl, 1% NP-40, 0.5% sodium deoxycholate, 0.1% SDS, 1 mM EGTA, 5 mM EDTA, 10 mM NaF, 1 mM […] and 1× complete EDTA-free Protease Inhibitor Cocktail). 30 μg of protein extracts were separated by 10% SDS-PAGE and the resulting gel was blotted onto PVDF membrane. After blocking with 5% non-fat milk in TBST, the membrane was incubated overnight with primary antibody against BCL11A or β-actin at 4° C. After incubating with horseradish peroxidase-conjugated secondary antibodies and washing the blot, the signals of indicated proteins were visualized by ECL (PerkinElmer) following the manufacturer's protocol.
BCL11A has been reported as a key negative regulator of γ-globin gene expression^23. Knockdown of BCL11A dramatically increases expression of the γ-globin gene. To investigate whether HbF-inducing agents activate γ-globin gene expression by modulating BCL11A protein levels, primary human erythroid cells were treated with known HbF-inducing agents (HU, NaB, and AS-28 (0.5 μM and 1 μM)), and also Compound II, SS-2394, Compound 3, Compound 8, and then harvested for Western blot analysis (FIG. 4; FIG. 11).

neutrophil (NEUT) values vs mock-treated [2]: equivalent
white blood cell (WBC) values vs mock-treated [2]: equivalent
water solubility [6]: improved
bioavailability [8]: ~25%
SMILES: CCN1CCN(c2nc(Nc3cccc(NC(=O)C#Cc4ccc(C)cc4)c3)c3ncn(CC)c3n2)CC1 [AS-28, 3-p-Tolyl-propynoic acid {3-[9-ethyl-2-(4-ethylpiperazin-1-yl)-9H-purin-6-ylamino]phenyl}amide]
GATA1 expression (γ globin activator), RT-qPCR vs mock [1]: 1.5 fold
hemoglobin levels (HGB) vs mock-treated control [2]: slightly increased
percentage of F-cells (flow cytometry) [2]: elevated
percentage of HbF (HPLC) [2]: significantly increased
percentage of sickle-shaped cells in blood smears under hypoxia [2]: significantly decreased
red blood cell (RBC) numbers vs mock-treated control [2]: slightly increased
reticulocyte (RET) values vs mock-treated [2]: equivalent
cytotoxicity [3]: only minor cytotoxicity
NFE2L2 expression (γ globin activator), RT-qPCR vs mock [4]: 1.5 fold
c-MYB expression (γ globin repressor), RT-qPCR vs mock [5]: 0.5 fold
γ-globin mRNA expression activation ([7]; 0.5 μM): 3.5 fold
γ-globin induction ([7]; 1 μM and 2 μM): reduced
top 5 canonical pathways affected (IPA of DEGs, fold change ≥1.4, p<0.05) [9]: does not include the cell toxicity-related pathways
γ-globin mRNA expression elevation [10]: at least 2 fold
cytotoxicity ([11]; 0.5 μM): without inducing significant cytotoxicity
cytotoxicity ([11]; 1 μM and 2 μM): cell cytotoxicity
expression level of BCL11A protein (in words) [12]: significantly decreased
reduction of BCL11A protein levels ([12]; FIG. 4): 50%
reduction of BCL11A protein levels ([12]; FIG. 11): 60%

SMILES: CCCC(=O)[O-].[Na+] [NaB, sodium butyrate, reference compound]
expression level of BCL11A protein (in words) [12]: significantly decreased
